The values below come from US9540325B2, “N1-cyclic amine-N5-substituted phenyl biguanide derivatives, methods of preparing the same and pharmaceutical composition comprising the same” (Immunomet Therapeutics, Inc., priority 2011, dated 2017).

The structures appear in SMILES notation. Where a name gives a salt, the structure may show the parent alone.

Series [1] has as its system HCT116 cells. Description: Measurement of effect of inhibiting cancer cell proliferation (MTT). It is filed as cell-based, human. The following applies: for inhibition at 100 µM: HCT-116, 100 μM, read-out: Cell Growth Inhibition (%) at 100 μM. An excerpt:
HCT116 cells derived from human colorectal cancer (commercially available from the Korean Cell Line Bank) were used, and the effect of inhibiting cancer cell proliferation of the biguanide derivative was confirmed by measuring the concentration value (cell growth inhibition concentration, GIC50) at which cell growth was inhibited by 50% using a 3-(4,5-dimethylthiazol-2-yl)-2,5-diphenyltetrazolium bromide (MTT) reagent.
First, HCT116 cells were put on a 96-well plate and cultured in a DMEM medium containing 10% fetal bovine serum for 16 hours so that the cellcount in each well was approximately 5,000. Subsequently, to obtain the GIC50 value of each compound, culture media were treated with 100 μM, 25 μM, 6.25 μM, 1.56 μM or 0.39 μM of the compound, and then cultured for 48 hours. Metformin hydrochloride was used as the control, and the culture media were treated with 25, 12.5, 2.5, 0.5, 0.1 mM metformin hydrochloride, and then tested in the same manner as described in the derivatives synthesized in the examples. In order to determine whether the cells survived after treatment with the compounds, MTT was added to the culture media which were then cultured for another 3 hours. Formed formazane crystals were dissolved using dimethyl sulfoxide (DMSO), and the absorbance of the resulting solution was measured at 560 nm. After the 48-hour culture, […] was indicated as cell viability (%) according to each treated concentration. A cell viability curve graph was plotted and the concentration (GIC50) value of the compound at which the growth was inhibited by 50% was calculated to confirm the inhibition effect of cancer cell proliferation. Also, the cell growth viability (%) when the concentration of the treated biguanide derivative and the metformin hydrochloride as the control were 100 μM was shown.

The subject of series [2] is AMPKα. In words: Measurement of AMPK activation effect (AMPKα Thr172 phosphorylation immunoassay) in MCF7 cells. Type of series: cell-based, human. The following applies: 24 hours; for AMPK activation effect at 10 μM (%) / AMPK activation effect at 50 μM (%): relative to untreated cells; for AMPK activation effect AC150: concentration at which AMPK activation reached 150%. The protocol:
MCF7 cells derived from human breast cancer cells (commercially available from the Korean Cell Line Bank) were used, and the AMPK activation effect of the biguanide derivative was confirmed using an AMPKα immunoassay kit (Invitrogen, Catalog No. KHO0651).
MCF7 cells were cultured in a DMEM medium supplemented with 10% fetal bovine serum. Thereafter, the cultured MCF7 cells were put into a 6-well plate with approximately 5×10^5 cells per well and cultured in an incubator supplied with 5% CO2. Culture media were treated with the derivatives synthesized in the examples at contents of 5, 10 and 50 μM, and then cultured for 24 hours. Metformin hydrochloride was used as the control, and the culture media were treated with 0.05, 0.5, 1, 2, 5 and 10 mM metformin hydrochloride, and then tested in the same manner as described in the derivatives synthesized in the examples. Subsequently, the cells were lysed according to a method presented in the operation manual of the AMPKα immunoassay kit, and 20 μg of a cell lysate was then yielded through protein assay. Thereafter, the AMPK activation effect was obtained by determining the degree of phosphorylation of 172nd threonine residue (Thr172) of the AMPKα from the cell lysate according to the method presented in the operation manual of the AMPKα immunoassay kit. […] A curve graph showing AMPK activation according to the concentration of the treated compounds was plotted based on the obtained AMPKα activation results, the concentration (activation concentration 150, AC150) value of the compound whose AMPK activation reached 150% was calculated using a GraphPad Prism 5.0 program, and the degrees of AMPK activation were obtained when concentrations of the treated biguanide derivatives were 10 μM and 50 μM and the metformin hydrochloride was 50 μM

A word on the melting point: it is the temperature, or range, at which the solid turns liquid. In turn, `N=C(NC(=N)N1CCCC1)Nc1ccc(C(F)(F)F)c(F)c1` (as salt: acetate) [Example 74, N1-pyrrolidine-N5-(3-fluoro-4-trifluoromethyl)phenyl biguanide acetate] showed a melting point of 204 to 205 °C.
In general, inhibition refers to the relative decrease from the control value, in per cent. By GI50 is commonly meant the concentration that inhibits growth by half. `Cl.N=C(NC(=N)N1CCC1)Nc1ccc(OC(F)(F)F)cc1` [Example 31, N1-azetidine-N5-(4-trifluoromethoxy)phenyl biguanide hydrochloride] gave a melting point of 257 to 259 °C. Besides, the inhibition at 100 µM in series [1] (Homo sapiens, 48 hours) stood at 96.5%. In series [1] (Homo sapiens, HCT-116, 48 h), the GI50 amounted to 22.9 µM. In series [2], the “AMPK activation effect at 10 μM (%)” value is 145%, the “AMPK activation effect at 50 μM (%)” value was 232% and the “AMPK activation effect AC150” value came out at 15.3 µM.
Regarding `Cl.N=C(NC(=N)N1CCCC1)Nc1ccc(Cl)cc1` [Example 17, N1-pyrrolidine-N5-(4-chloro)phenyl biguanide hydrochloride], the melting point lay in the range of 260 to 261 °C. In addition, the inhibition at 100 µM in series [1] (Homo sapiens, 48 hours) amounted to 97.4%. This molecule also showed a GI50 in series [1] (Homo sapiens, HCT-116, 48 h) of 48.2 µM. Further, in series [2], the “AMPK activation effect at 10 μM (%)” value is recorded as 167%, the “AMPK activation effect at 50 μM (%)” value is reported as 512% and the “AMPK activation effect AC150” value came to 8.4 µM.
Regarding `Cl.N=C(NC(=N)N1CCCCC1)Nc1cccc(OC(F)F)c1` [Example 30, N1-piperidine-N5-(3-difluoromethoxy)phenyl biguanide hydrochloride], the “Cell Growth Inhibition (%) at 100 μM” value in series [1] (100 μM, 48 hours) is on record as 97.9%. Moreover, in series [1] (48 hours), the GI50 came to 33.7 µM. Besides, in series [2], the “AMPK activation effect at 10 μM (%)” value amounted to 187%, the “AMPK activation effect at 50 μM (%)” value turned out to be 636% and the “AMPK activation effect AC150” value is 6.4 µM.
`Cl.N=C(NC(=N)N1CCCC1)Nc1ccc(Cl)c(Cl)c1` [Example 63, N1-pyrrolidine-N5-(3,4-dichloro)phenyl biguanide hydrochloride] had a melting point of 282 to 283 °C. Besides, the inhibition at 100 µM in series [1] (Homo sapiens, 48 hours) was found to be 97.6%. This molecule also had a GI50 in series [1] (Homo sapiens, HCT-116, 48 h) of 8.7 µM. In addition, in series [2], the “AMPK activation effect at 10 μM (%)” value is 261% and the “AMPK activation effect AC150” value stood at 6.2 µM.
In turn, `Cl.N=C(NC(=N)N1CCCCC1)Nc1ccc(F)cc1` [Example 14, N1-piperidine-N5-(4-fluoro)phenyl biguanide hydrochloride] had a melting point of 269 to 270 °C. Moreover, in series [1] (Homo sapiens, 48 hours), the inhibition at 100 µM came out at 49.7%. Moreover, the GI50 in series [1] (Homo sapiens, HCT-116, 48 h) is over 100 µM. In series [2], the “AMPK activation effect at 10 μM (%)” value came out at 204%, the “AMPK activation effect at 50 μM (%)” value is given as 429% and the “AMPK activation effect AC150” value was 4.0 µM.
Molecule `Cl.N=C(NC(=N)N1CCCCC1)Nc1cccc(OC(F)(F)F)c1` [Example 29, N1-piperidine-N5-(3-trifluoromethoxy)phenyl biguanide hydrochloride] registered a melting point of 264 to 266 °C. In series [1] (Homo sapiens, 48 hours), the inhibition at 100 µM stood at 98%. Moreover, it took 5.9 µM to inhibit growth in series [1] (Homo sapiens, HCT-116, 48 h) by half (GI50). In addition, in series [2], the “AMPK activation effect at 10 μM (%)” value is given as 400% and the “AMPK activation effect AC150” value was determined as 1.1 µM.
`Cl.N=C(NC(=N)N1CCCCC1)Nc1cc(F)cc(F)c1` [Example 60, N1-piperidine-N5-(3,5-difluoro)phenyl biguanide hydrochloride] displayed a melting point of 243 to 244 °C. In series [1] (Homo sapiens, 48 hours), the inhibition at 100 µM was 97.6%. Moreover, it took 48.2 µM to inhibit growth in series [1] (Homo sapiens, HCT-116, 48 h) by half (GI50). Besides, in series [2], the “AMPK activation effect at 10 μM (%)” value is given as 144%, the “AMPK activation effect at 50 μM (%)” value is 576% and the “AMPK activation effect AC150” value stood at 8.2 µM.
Turning to `Cl.N=C(NC(=N)N1CCCCC1)Nc1ccc(OC(F)(F)F)c(Cl)c1` [Example 57, N1-piperidine-N5-(3-chloro-4-trifluoromethoxy)phenyl biguanide hydrochloride], the melting point is 261 to 262 °C. In addition, the inhibition at 100 µM in series [1] (Homo sapiens, 48 hours) is 96.3%. For the same molecule, growth in series [1] (Homo sapiens, HCT-116, 48 h) was halved (GI50) at 2.6 µM. In series [2], the “AMPK activation effect at 10 μM (%)” value is 345% and the “AMPK activation effect AC150” value was determined as 3.2 µM.
Molecule `Cl.N=C(NC(=N)N1CCCCC1)Nc1cc(F)c(F)c(F)c1` [Example 68, N1-piperidine-N5-(3,4,5-trifluoro)phenyl biguanide hydrochloride] yielded a melting point of 248 to 249 °C. The inhibition at 100 µM in series [1] (Homo sapiens, 48 hours) is 97.6%. In addition, the 50% growth inhibitory concentration (GI50) in series [1] (Homo sapiens, HCT-116, 48 h) was 13.8 µM. For the same molecule, in series [2], the “AMPK activation effect at 10 μM (%)” value stood at 197% and the “AMPK activation effect AC150” value is 7.2 µM.
`Cl.N=C(NC(=N)N1CCOCC1)Nc1ccc(OC(F)(F)F)cc1` [Example 34, N1-morpholine-N5-(4-trifluoromethoxy)phenyl biguanide hydrochloride]: the melting point lay within 263 to 264 °C. Also, in series [1] (Homo sapiens, 48 hours), the inhibition at 100 µM amounted to 98%. This molecule also had a GI50 in series [1] (Homo sapiens, HCT-116, 48 h) of 47.3 µM. In series [2], the “AMPK activation effect at 10 μM (%)” value came out at 121%, the “AMPK activation effect at 50 μM (%)” value was found to be 168% and the “AMPK activation effect AC150” value was 33.7 µM.
`Cl.N=C(NC(=N)N1CCCCC1)Nc1cccc(O)c1` [Example 11, N1-piperidine-N5-(3-hydroxy)phenyl biguanide hydrochloride] registered a melting point of 210 to 212 °C. The inhibition at 100 µM in series [1] (Homo sapiens, 48 hours) stood at 29.7%. This molecule had a GI50 in series [1] (Homo sapiens, HCT-116, 48 h) of over 100 µM. Moreover, in series [2], the “AMPK activation effect at 10 μM (%)” value is reported as 127%, the “AMPK activation effect at 50 μM (%)” value came to 127% and the “AMPK activation effect AC150” value is over 50 µM.
As for `N=C(NC(=N)N1CCCCC1)Nc1ccc(OC(F)(F)F)cc1` (as salt: acetate) [Example 73, N1-piperidine-N5-(4-trifluoromethoxy)phenyl biguanide acetate], the melting point fell in the range of 200 to 202 °C.
On the same count and under the same terms, in the case of `N=C(NC(=N)N1CCCCC1)Nc1ccc(C(F)(F)F)c(F)c1` (as salt: acetate) [Example 75, N1-piperidine-N5-(3-fluoro-4-trifluoromethyl)phenyl biguanide acetate] it was 206 to 208 °C.
Still for that read-out and setting: the same measure for `N=C(NC(=N)N1CCCCC1)Nc1ccc(C(F)(F)F)cc1` (as salt: acetate) [Example 71, N1-piperidine-N5-(4-trifluoromethyl)phenyl biguanide acetate]: 198 to 200 °C.
With `Cl.N=C(NC(=N)N1CCCCC1)Nc1ccc(S(N)(=O)=O)cc1` [Example 44, N1-piperidine-N5-(4-sulfamoyl)phenyl biguanide hydrochloride], in series [1] (Homo sapiens, 48 hours), the inhibition at 100 µM is 32.6%. Besides, in series [1] (Homo sapiens, HCT-116, 48 h), the GI50 was over 100 µM. In addition, in series [2], the “AMPK activation effect at 10 μM (%)” value was 119%, the “AMPK activation effect at 50 μM (%)” value is given as 114% and the “AMPK activation effect AC150” value is over 50 µM.
Turning to `N=C(NC(=N)N1CCCCC1)Nc1ccc(OC(F)(F)F)c(F)c1` (as salt: acetate) [Example 77, N1-piperidine-N5-(3-fluoro-4-trifluoromethoxy)phenyl biguanide acetate], the melting point was in the range of 202 to 204 °C.
As for `Cl.N=C(NC(=N)N1CCCCC1)Nc1ccc(S(=O)(=O)O)cc1` [Example 42, N1-piperidine-N5-(4-sulfonic acid)phenyl biguanide hydrochloride], in series [1] (Homo sapiens, 48 hours), the inhibition at 100 µM amounted to 23.2%. This molecule returned a GI50 in series [1] (Homo sapiens, HCT-116, 48 h) of over 100 µM. In series [2], the “AMPK activation effect at 10 μM (%)” value stood at 68%, the “AMPK activation effect at 50 μM (%)” value was found to be 97% and the “AMPK activation effect AC150” value is over 50 µM.
`N=C(NC(=N)N1CCCC1)Nc1ccc(OC(F)(F)F)c(F)c1` (as salt: acetate) [Example 76, N1-pyrrolidine-N5-(3-fluoro-4-trifluoromethoxy)phenyl biguanide acetate] returned a melting point of 203 to 205 °C.
`Cl.N=C(NC(=N)N1CCCC1)Nc1ccc(OC(F)(F)F)c(Cl)c1` [Example 56, N1-pyrrolidine-N5-(3-chloro-4-trifluoromethoxy)phenyl biguanide hydrochloride]: the inhibition at 100 µM in series [1] (Homo sapiens, 48 hours) was found to be 101%. This molecule had a GI50 in series [1] (Homo sapiens, HCT-116, 48 h) of 4.6 µM. In series [2], the “AMPK activation effect at 10 μM (%)” value is 367% and the “AMPK activation effect AC150” value is 2.0 µM.
